Legend:
Details in all cases: Compound concentration 10.0 uM
[1] = target: T1, Alpha-1B adrenergic receptor (Homo sapiens) (UniProt P35368)
T1 sequence (whole entry): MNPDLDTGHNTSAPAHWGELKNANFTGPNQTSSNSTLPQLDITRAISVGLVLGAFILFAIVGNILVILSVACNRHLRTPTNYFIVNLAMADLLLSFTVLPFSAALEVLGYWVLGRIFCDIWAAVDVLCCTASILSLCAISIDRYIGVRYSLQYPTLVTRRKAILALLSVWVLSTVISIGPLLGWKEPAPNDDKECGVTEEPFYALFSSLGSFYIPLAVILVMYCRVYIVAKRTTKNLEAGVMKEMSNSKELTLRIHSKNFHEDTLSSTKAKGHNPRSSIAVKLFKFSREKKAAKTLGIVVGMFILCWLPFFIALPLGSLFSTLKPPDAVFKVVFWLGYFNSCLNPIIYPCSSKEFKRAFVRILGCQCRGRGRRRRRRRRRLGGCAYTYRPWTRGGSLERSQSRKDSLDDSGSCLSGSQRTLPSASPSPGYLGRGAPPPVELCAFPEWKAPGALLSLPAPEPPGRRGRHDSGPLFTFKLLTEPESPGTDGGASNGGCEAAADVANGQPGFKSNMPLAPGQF

[2] = target: T2, Muscarinic acetylcholine receptor M1 (Homo sapiens) (UniProt P11229)
T2 sequence (whole entry): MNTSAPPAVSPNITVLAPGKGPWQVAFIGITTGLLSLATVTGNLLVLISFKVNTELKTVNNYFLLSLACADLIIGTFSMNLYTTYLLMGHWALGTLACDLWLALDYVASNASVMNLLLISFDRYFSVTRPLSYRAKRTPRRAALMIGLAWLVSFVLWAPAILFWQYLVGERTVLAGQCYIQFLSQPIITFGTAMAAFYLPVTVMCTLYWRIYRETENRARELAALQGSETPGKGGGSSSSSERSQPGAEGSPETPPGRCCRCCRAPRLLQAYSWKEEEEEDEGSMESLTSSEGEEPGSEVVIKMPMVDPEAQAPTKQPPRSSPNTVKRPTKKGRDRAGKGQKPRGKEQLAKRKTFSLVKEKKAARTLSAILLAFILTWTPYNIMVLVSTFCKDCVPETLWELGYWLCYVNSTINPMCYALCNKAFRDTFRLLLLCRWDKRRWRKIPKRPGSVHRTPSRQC

[3] = target: 5-hydroxytryptamine receptor 2A (Homo sapiens) (UniProt P28223)
[4] = target: D(1A) dopamine receptor (Homo sapiens) (UniProt P21728)
[5] = target: T3, Alpha-2A adrenergic receptor (Homo sapiens) (UniProt P08913)
T3 sequence (whole entry): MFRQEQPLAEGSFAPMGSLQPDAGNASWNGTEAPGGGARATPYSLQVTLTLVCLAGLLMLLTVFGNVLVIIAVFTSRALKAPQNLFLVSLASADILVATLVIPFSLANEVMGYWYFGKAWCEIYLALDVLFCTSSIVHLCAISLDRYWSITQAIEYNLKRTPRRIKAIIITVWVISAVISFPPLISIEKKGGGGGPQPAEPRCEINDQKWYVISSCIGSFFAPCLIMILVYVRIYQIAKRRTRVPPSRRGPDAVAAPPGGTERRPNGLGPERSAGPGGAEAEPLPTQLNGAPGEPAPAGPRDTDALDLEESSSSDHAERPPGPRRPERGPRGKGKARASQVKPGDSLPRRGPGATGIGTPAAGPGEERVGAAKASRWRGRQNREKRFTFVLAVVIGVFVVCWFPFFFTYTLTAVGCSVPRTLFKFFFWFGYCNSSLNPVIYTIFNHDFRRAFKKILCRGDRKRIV

[6] = target: 5-hydroxytryptamine receptor 1D (Homo sapiens) (UniProt P28221)
[7] = target: Muscarinic acetylcholine receptor M5 (Homo sapiens) (UniProt P08912)
[8] = target: Sodium-dependent serotonin transporter (Homo sapiens) (UniProt P31645)
[9] = target: D(2) dopamine receptor (Homo sapiens) (UniProt P14416)
[10] = target: Histamine H4 receptor (Homo sapiens) (UniProt Q9H3N8)
[11] = target: Mu-type opioid receptor (Homo sapiens) (UniProt P35372)
[12] = target: T4, 5-hydroxytryptamine receptor 1A (Homo sapiens) (UniProt P08908)
T4 sequence (whole entry): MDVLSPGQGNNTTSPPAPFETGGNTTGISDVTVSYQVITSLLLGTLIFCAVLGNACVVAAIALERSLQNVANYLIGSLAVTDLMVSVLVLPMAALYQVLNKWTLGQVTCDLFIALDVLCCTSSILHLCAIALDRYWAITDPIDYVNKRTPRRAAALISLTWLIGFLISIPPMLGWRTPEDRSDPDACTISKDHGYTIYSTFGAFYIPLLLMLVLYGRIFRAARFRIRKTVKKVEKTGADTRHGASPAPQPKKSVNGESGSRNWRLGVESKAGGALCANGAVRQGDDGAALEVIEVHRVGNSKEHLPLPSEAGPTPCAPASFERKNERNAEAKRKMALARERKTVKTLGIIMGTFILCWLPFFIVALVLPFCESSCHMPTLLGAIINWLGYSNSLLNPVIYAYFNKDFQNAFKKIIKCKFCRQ

[13] = target: D(1B) dopamine receptor (Homo sapiens) (UniProt P21918)
[14] = target: Histamine H1 receptor (Homo sapiens) (UniProt P35367)

Measured: inhibition

Chain of Histamine H4 receptor (Homo sapiens) (Q9H3N8 whole entry): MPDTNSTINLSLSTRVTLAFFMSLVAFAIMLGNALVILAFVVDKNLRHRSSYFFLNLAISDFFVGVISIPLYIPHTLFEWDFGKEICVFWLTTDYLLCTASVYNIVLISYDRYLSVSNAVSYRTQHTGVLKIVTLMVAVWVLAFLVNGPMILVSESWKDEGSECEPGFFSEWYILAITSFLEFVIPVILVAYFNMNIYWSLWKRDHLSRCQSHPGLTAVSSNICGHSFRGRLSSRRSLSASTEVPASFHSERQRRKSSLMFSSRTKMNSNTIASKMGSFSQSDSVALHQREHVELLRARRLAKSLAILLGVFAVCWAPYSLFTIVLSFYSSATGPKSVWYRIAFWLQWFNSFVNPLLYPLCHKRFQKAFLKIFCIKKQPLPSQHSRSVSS
Chain of Muscarinic acetylcholine receptor M5 (Homo sapiens) (P08912 whole entry): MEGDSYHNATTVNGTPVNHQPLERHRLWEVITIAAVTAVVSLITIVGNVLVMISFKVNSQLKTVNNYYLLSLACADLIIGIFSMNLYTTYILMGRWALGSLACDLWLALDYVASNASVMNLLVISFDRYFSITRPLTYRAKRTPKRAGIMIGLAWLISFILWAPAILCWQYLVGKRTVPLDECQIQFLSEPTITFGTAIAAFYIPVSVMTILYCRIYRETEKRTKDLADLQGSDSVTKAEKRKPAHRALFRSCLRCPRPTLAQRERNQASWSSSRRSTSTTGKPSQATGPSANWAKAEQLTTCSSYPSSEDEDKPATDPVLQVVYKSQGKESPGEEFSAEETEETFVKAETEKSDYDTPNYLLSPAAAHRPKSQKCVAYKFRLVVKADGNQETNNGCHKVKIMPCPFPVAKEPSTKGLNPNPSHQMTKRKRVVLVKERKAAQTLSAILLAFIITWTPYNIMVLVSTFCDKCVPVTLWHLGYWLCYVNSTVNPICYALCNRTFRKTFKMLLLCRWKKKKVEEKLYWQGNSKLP
Chain of D(1A) dopamine receptor (Homo sapiens) (P21728 whole entry): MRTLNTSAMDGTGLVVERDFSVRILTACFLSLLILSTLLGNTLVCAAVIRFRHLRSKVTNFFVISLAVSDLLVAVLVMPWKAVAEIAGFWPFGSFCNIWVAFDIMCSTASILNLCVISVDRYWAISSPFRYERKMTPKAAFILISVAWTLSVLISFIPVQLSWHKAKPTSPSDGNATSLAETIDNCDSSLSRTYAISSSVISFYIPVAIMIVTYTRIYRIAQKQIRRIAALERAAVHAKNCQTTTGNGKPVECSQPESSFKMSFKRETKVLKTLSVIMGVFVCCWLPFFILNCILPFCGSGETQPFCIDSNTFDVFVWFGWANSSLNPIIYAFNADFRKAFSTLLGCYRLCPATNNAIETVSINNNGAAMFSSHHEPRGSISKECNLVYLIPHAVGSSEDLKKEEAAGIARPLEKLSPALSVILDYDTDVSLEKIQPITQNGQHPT
Chain of 5-hydroxytryptamine receptor 1D (Homo sapiens) (P28221 whole entry): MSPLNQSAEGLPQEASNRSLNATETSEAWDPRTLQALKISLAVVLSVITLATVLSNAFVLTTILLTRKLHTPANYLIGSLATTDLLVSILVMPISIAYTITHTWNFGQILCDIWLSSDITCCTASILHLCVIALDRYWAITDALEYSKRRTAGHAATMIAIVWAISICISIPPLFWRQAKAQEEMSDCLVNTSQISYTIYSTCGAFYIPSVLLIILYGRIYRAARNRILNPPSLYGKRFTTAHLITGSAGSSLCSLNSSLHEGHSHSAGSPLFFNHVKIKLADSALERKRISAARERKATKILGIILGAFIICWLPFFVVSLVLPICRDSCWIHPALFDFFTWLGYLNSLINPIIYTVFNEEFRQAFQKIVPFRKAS
Chain of D(1B) dopamine receptor (Homo sapiens) (P21918 whole entry): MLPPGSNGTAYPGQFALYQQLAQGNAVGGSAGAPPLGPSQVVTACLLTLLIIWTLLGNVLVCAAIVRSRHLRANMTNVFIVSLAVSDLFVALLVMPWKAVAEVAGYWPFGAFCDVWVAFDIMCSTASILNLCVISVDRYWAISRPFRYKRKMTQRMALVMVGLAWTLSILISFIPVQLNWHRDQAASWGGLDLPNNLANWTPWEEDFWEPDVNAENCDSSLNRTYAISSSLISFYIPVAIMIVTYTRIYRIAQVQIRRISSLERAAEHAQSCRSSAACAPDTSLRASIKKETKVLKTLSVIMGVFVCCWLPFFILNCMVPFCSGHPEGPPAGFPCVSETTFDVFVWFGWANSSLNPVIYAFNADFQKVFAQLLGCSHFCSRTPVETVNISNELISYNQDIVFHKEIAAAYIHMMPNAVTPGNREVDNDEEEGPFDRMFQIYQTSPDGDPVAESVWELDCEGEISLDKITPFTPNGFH
Chain of D(2) dopamine receptor (Homo sapiens) (P14416 whole entry): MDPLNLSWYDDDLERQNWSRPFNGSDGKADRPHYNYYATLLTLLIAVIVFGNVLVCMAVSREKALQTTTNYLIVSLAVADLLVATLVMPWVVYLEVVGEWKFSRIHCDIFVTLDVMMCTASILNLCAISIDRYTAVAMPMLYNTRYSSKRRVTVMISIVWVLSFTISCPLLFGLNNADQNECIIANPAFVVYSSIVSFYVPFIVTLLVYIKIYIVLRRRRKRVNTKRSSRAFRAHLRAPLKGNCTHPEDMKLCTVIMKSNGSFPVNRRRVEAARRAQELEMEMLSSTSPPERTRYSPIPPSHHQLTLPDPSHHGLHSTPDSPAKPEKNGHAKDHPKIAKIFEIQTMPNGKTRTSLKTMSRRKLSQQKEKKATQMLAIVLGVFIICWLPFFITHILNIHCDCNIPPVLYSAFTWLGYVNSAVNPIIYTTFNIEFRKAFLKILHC
Chain of 5-hydroxytryptamine receptor 2A (Homo sapiens) (P28223 whole entry): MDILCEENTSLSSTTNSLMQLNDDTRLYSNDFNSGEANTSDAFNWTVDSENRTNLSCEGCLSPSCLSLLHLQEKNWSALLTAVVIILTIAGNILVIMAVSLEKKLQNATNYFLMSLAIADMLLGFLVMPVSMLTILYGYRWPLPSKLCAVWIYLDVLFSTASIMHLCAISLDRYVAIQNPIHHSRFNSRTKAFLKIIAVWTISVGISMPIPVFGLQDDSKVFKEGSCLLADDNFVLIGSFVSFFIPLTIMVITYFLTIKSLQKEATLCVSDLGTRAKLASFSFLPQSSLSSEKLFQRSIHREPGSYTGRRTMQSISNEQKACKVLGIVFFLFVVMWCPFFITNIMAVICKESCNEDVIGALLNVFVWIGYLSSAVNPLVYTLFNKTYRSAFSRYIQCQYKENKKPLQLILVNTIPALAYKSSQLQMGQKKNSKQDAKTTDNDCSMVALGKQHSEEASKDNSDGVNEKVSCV
Chain of Mu-type opioid receptor (Homo sapiens) (P35372 whole entry): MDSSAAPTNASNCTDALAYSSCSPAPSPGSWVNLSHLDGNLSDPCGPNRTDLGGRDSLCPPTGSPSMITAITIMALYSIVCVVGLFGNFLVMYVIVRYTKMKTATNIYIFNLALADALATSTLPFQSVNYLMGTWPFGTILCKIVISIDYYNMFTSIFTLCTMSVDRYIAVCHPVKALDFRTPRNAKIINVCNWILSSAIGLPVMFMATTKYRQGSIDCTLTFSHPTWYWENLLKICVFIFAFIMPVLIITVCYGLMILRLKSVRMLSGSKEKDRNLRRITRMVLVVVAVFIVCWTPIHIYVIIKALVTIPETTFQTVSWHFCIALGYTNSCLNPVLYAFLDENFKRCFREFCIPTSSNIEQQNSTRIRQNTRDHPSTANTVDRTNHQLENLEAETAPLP
Chain of Sodium-dependent serotonin transporter (Homo sapiens) (P31645 whole entry, looked up): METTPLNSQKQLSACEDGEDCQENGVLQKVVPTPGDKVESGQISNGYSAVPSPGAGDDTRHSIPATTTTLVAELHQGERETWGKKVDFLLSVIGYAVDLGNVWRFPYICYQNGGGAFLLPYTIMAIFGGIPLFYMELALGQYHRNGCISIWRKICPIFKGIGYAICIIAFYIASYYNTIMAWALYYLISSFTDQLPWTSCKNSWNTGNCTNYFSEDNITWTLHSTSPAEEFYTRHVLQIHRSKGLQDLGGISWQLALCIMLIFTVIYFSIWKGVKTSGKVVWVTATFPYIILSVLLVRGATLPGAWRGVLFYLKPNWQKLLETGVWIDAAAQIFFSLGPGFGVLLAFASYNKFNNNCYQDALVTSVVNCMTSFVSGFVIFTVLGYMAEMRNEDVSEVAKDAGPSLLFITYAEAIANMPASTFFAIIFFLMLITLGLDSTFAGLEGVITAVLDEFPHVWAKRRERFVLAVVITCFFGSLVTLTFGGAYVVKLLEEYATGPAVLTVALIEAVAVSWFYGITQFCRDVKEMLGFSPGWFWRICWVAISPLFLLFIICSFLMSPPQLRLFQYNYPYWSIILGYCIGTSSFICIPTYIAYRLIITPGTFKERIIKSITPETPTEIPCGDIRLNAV
Chain of Histamine H1 receptor (Homo sapiens) (P35367 whole entry): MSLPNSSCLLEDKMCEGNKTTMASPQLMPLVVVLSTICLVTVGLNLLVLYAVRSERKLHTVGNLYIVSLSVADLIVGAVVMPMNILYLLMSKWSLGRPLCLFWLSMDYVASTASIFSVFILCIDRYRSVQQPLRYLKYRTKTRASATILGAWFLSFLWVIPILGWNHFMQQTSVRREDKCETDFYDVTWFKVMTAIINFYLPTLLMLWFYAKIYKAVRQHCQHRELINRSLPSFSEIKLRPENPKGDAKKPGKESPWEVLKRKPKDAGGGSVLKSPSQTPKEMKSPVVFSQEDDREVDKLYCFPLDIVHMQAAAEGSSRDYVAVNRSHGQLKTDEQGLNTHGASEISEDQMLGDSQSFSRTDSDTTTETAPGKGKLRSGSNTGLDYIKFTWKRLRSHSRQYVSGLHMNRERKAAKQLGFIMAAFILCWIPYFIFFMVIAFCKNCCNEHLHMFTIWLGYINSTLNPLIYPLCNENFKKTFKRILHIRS

Cc1cc(OCCC(C)(C)O)cc(C)c1-c1ccc(F)c2c1CC[C@H]2Oc1ccc2c(c1)OC[C@H]2CC(=O)O
inactive: [1] -7.32% | [2] -3.94% | [3] -0.3% | [4] 0.05% | [5] 16.6% | [6] 6.65% | [7] -4.38% | [8] 4.25% | [9] 3.28% | [10] -5.97% | [11] 15.6% | [12] 22.6% | [13] 15.1% | [14] 10.3%

COCCCS(=O)(=O)c1cc(C)c(-c2ccc(F)c3c2CC[C@H]3Oc2ccc3c(c2)OC[C@H]3CC(=O)O)c(C)c1
inactive: [1] -4.9% | [2] 7.17% | [3] -2.26% | [4] -9.32% | [5] 5.14% | [6] -3.85% | [7] -1.63% | [8] -1.62% | [9] 8.15% | [10] -2.95% | [11] 13.7% | [12] 31.1% | [13] 13.6% | [14] -1.92%

Source: ChEMBL document CHEMBL5058643, “Data for DCP probe BI-2081” (2022)
